For 25 compounds, EC50 results are on record in patent US12201633B2, “Compounds and methods for treatment of visceral pain” (Arena Pharmaceuticals, Inc., priority 2017, dated 2025).

For one assay, the target named is T1, human CB2 receptor (Homo sapiens, UniProt P34972). Put plainly: PathHunter β-arrestin assay, CB2.
T1 sequence (P34972 whole entry): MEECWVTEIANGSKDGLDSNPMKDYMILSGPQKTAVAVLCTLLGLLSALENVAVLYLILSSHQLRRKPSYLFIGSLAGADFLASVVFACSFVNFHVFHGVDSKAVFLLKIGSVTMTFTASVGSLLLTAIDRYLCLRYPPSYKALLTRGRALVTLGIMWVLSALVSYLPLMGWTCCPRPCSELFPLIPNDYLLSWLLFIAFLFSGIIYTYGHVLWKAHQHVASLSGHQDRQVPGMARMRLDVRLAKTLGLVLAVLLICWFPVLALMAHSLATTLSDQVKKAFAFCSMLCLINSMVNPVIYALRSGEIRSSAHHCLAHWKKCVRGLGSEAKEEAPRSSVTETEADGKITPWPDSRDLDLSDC
Conditions: not given
For orientation: EC50 means the concentration that produces a half-maximal response. In turn, `O=C(NC1(CO)CC1)c1nn(-c2ccc(Cl)cc2Cl)c2c1C[C@H]1C[C@@H]21` [Compound 174, (1aR,5aR)-2-(2,4-Dichloro-phenyl)-1a,2,5,5a-tetrahydro-1H-2,3-diaza-cyclopropa[a]pentalene-4-carboxylic acid (1-hydroxymethyl-cyclopropyl)-amide] came in with an EC50 of 167 nM. The same measure, in the same setting: the figure for `CC(C)(CO)NC(=O)c1nn(-c2ccc(F)cn2)c2c1C[C@H]1C[C@@H]21` [Compound 309, (1aR,5aR)-2-(5-Fluoro-pyridin-2-yl)-1a,2,5,5a-tetrahydro-1H-2,3-diaza-cyclopropa[a]pentalene-4-carboxylic acid (2-hydroxy-1,1-dimethyl-ethyl)-amide] is 136 nM. Still for that read-out and setting: the figure for `CC(C)(C#N)NC(=O)c1nn(-c2cc(Cl)ccn2)c2c1C[C@H]1C[C@@H]21` [Compound 625, (1aR,5aR)-2-(4-Chloro-pyridin-2-yl)-1a,2,5,5a-tetrahydro-1H-2,3-diaza-cyclopropa[a]pentalene-4-carboxylic acid (cyano-dimethyl-methyl)-amide] is 11.8 nM. Still for that read-out and setting: as for `CC(C)(C)[C@@H](CO)NC(=O)c1nn(-c2cnccn2)c2c1C[C@H]1C[C@@H]21` [Compound 642, (1aR,5aR)-2-Pyrazin-2-yl-1a,2,5,5a-tetrahydro-1H-2,3-diaza-cyclopropa[a]pentalene-4-carboxylic acid ((S)-1-hydroxymethyl-2,2-dimethyl-propyl)-amide], the figure is 26.4 nM. `CC(C)(COP(=O)(O)O)NC(=O)c1nn(-c2cc(C#N)ccn2)c2c1C[C@H]1C[C@@H]21` [Compound 646, Phosphoric acid mono-(2-{[(1aR,5aR)-2-(4-cyano-pyridin-2-yl)-1a,2,5,5a-tetrahydro-1H-2,3-diaza-cyclopropa[a]pentalene-4-carbonyl]-amino}-2-methyl-propyl) ester] had an EC50 of 925 nM.

For the compound `CC(C)(C)[C@@H](COP(=O)(O)O)NC(=O)c1nn(-c2cnccn2)c2c1C[C@H]1C[C@@H]21` [Compound 683, Phosphoric acid mono-{(S)-3,3-dimethyl-2-[((1aR,5aR)-2-pyrazin-2-yl-1a,2,5,5a-tetrahydro-1H-2,3-diaza-cyclopropa[a]pentalene-4-carbonyl)-amino]-butyl} ester], the EC50 is 3000 nM. The same measure, in the same setting: the figure for `O=C(N[C@H](CO)C1CCOCC1)c1nn(-c2cnccn2)c2c1C[C@H]1C[C@@H]21` [Compound 684, (1aR,5aR)-2-Pyrazin-2-yl-1a,2,5,5a-tetrahydro-1H-2,3-diaza-cyclopropa[a]pentalene-4-carboxylic acid ((S)-2-hydroxy-1-tetrahydro-pyran-4-yl-ethyl)-amide] is 59 nM; for `CC(C)(C)[C@@H](COP(=O)(O)O)NC(=O)c1nn(-c2c[n+]([O-])ccn2)c2c1C[C@H]1C[C@@H]21` [Compound 703, Phosphoric acid mono-((S)-3,3-dimethyl-2-{[(1aR,5aR)-2-(4-oxy-pyrazin-2-yl)-1a,2,5,5a-tetrahydro-1H-2,3-diaza-cyclopropa[a]pentalene-4-carbonyl]-amino}-butyl) ester] it is 603 nM. The same measure, in the same setting: the figure for `COC(=O)C(NC(=O)c1nn(-c2c[n+]([O-])ccn2)c2c1C[C@H]1C[C@@H]21)c1ccccn1` (stereo partly drawn) [Compound 711, {[(1aR,5aR)-2-(4-Oxy-pyrazin-2-yl)-1a,2,5,5a-tetrahydro-1H-2,3-diaza-cyclopropa[a]pentalene-4-carbonyl]-amino}-pyridin-2-yl-acetic acid methyl ester] is 28.1 nM. Same read-out and setting: the figure for `CNC(=O)[C@@H](NC(=O)c1nn(-c2c[n+]([O-])ccn2)c2c1C[C@H]1C[C@@H]21)c1ccccc1` [Compound 722, (1aR,5aR)-2-(4-Oxy-pyrazin-2-yl)-1a,2,5,5a-tetrahydro-1H-2,3-diaza-cyclopropa[a]pentalene-4-carboxylic acid ((S)-methylcarbamoyl-phenyl-methyl)-amide] is 34 nM; for `CC(C)(C)[C@@H](NC(=O)c1nn(-c2c[n+]([O-])ccn2)c2c1C[C@@H]1C[C@H]21)c1ccccn1` [Compound 766, (1aS,5aS)-2-(4-Oxy-pyrazin-2-yl)-1a,2,5,5a-tetrahydro-1H-2,3-diaza-cyclopropa[a]pentalene-4-carboxylic acid ((R)-2,2-dimethyl-1-pyridin-2-yl-propyl)-amide] it is 4.57 nM. For the compound `CC(C)(C)[C@H](NC(=O)c1nn(-c2c[n+]([O-])ccn2)c2c1C[C@@H]1C[C@H]21)c1ccccn1` [Compound 767, (1aS,5aS)-2-(4-Oxy-pyrazin-2-yl)-1a,2,5,5a-tetrahydro-1H-2,3-diaza-cyclopropa[a]pentalene-4-carboxylic acid ((S)-2,2-dimethyl-1-pyridin-2-yl-propyl)-amide], the EC50 is 66.6 nM. `CC(C)[C@@H](C)NC(=O)c1nn(-c2c[n+]([O-])ccn2)c2c1C[C@H]1C[C@@H]21` [Compound 828, (1aR,5aR)-2-(4-Oxy-pyrazin-2-yl)-1a,2,5,5a-tetrahydro-1H-2,3-diaza-cyclopropa[a]pentalene-4-carboxylic acid ((R)-1,2-dimethyl-propyl)-amide] gave an EC50 of 4.14 nM. Same read-out and setting: the figure for `CC(C)[C@H](N)C(=O)OC[C@@H](NC(=O)c1nn(-c2c[n+]([O-])ccn2)c2c1C[C@@H]1C[C@H]21)C(C)(C)C` [Compound 848, (1aS,5aS)—(S)-2-Amino-3-methyl-butyric acid (S)-3,3-dimethyl-2-{[2-(4-oxy-pyrazin-2-yl)-1a,2,5,5a-tetrahydro-1H-2,3-diaza-cyclopropa[a]pentalene-4-carbonyl]-amino}-butyl ester] is 50 nM; for `CC(C)[C@@H](CO)NC(=O)c1nn(-c2c[n+]([O-])ccn2)c2c1C[C@@H]1C[C@H]21` [Compound 896, (1aS,5aS)-2-(4-Oxy-pyrazin-2-yl)-1a,2,5,5a-tetrahydro-1H-2,3-diaza-cyclopropa[a]pentalene-4-carboxylic acid ((S)-1-hydroxymethyl-2-methyl-propyl)-amide] it is 43.5 nM; for `CC(C)(C)NNC(=O)c1nn(-c2c[n+]([O-])ccn2)c2c1C[C@@H]1C[C@H]21` [Compound 902, (1aS,5aS)-2-(4-Oxy-pyrazin-2-yl)-1a,2,5,5a-tetrahydro-1H-2,3-diaza-cyclopropa[a]pentalene-4-carboxylic acid N′-tert-butyl-hydrazide] it is 77.5 nM. The same measure, in the same setting: the figure for `CC(C)(CF)NC(=O)c1nn(-c2c[n+]([O-])ccn2)c2c1C[C@@H]1C[C@H]21` [Compound 904, (1aS,5aS)-2-(4-Oxy-pyrazin-2-yl)-1a,2,5,5a-tetrahydro-1H-2,3-diaza-cyclopropa[a]pentalene-4-carboxylic acid (2-fluoro-1,1-dimethyl-ethyl)-amide] is 31.4 nM. As to `CC(C)[C@@H](C)NC(=O)c1nn(-c2c[n+]([O-])ccn2)c2c1C[C@@H]1C[C@H]21` [Compound 912, (1aS,5aS)-2-(4-Oxy-pyrazin-2-yl)-1a,2,5,5a-tetrahydro-1H-2,3-diaza-cyclopropa[a]pentalene-4-carboxylic acid ((R)-1,2-dimethyl-propyl)-amide], the midpoint of the response, the EC50, lay at 9.49 nM. For `O=C(N[C@H]1c2ccccc2C[C@@H]1O)c1nn(-c2c[n+]([O-])ccn2)c2c1C[C@@H]1C[C@H]21` [Compound 920, (1aS,5aS)-2-(4-Oxy-pyrazin-2-yl)-1a,2,5,5a-tetrahydro-1H-2,3-diaza-cyclopropa[a]pentalene-4-carboxylic acid ((1S,2S)-2-hydroxy-indan-1-yl)-amide], the EC50 amounted to 4.6 nM. `O=C(NC1(C(F)(F)F)CC1)c1nn(-c2cnccn2)c2c1C[C@@H]1C[C@H]21` [Compound 930, (1aS,5aS)-2-Pyrazin-2-yl-1a,2,5,5a-tetrahydro-1H-2,3-diaza-cyclopropa[a]pentalene-4-carboxylic acid (1-trifluoromethyl-cyclopropyl)-amide] had an EC50 of 17 nM. As for `CC(C)(CO)NC(=O)c1nn(-c2cc(F)ccn2)c2c1C[C@H]1C[C@@H]21` [Compound 931, (1aR,5aR)-2-(4-Fluoro-pyridin-2-yl)-1a,2,5,5a-tetrahydro-1H-2,3-diaza-cyclopropa[a]pentalene-4-carboxylic acid (2-hydroxy-1,1-dimethyl-ethyl)-amide], the EC50 worked out at 20.8 nM.

Still in this assay, the particulars now being: read-out: EC50 hCB2; β-arrestin, CHO-K1 cells; Table B-2.
For `O=C(NC1(C(F)(F)F)CC1)c1nn(-c2c[n+]([O-])ccn2)c2c1C[C@@H]1C[C@H]21` [Compound 764, (1aS,5aS)-2-(4-Oxy-pyrazin-2-yl)-1a,2,5,5a-tetrahydro-1H-2,3-diaza-cyclopropa[a]pentalene-4-carboxylic acid (1-trifluoromethyl-cyclopropyl)-amide], the EC50 is 5.92 nM. Same read-out and setting: as for `O=C(N[C@H](CO)c1ccccc1)c1nn(-c2c[n+]([O-])ccn2)c2c1C[C@@H]1C[C@H]21` [Compound 913, (1aS,5aS)-2-(4-Oxy-pyrazin-2-yl)-1a,2,5,5a-tetrahydro-1H-2,3-diaza-cyclopropa[a]pentalene-4-carboxylic acid ((S)-2-hydroxy-1-phenyl-ethyl)-amide], the figure is 105 nM.

A further assay addresses T1, human CB2 receptor. Put plainly: HTRF assay for direct cAMP measurement, CB2. It counts as cell-based. Further details: 93-0164 (CHO-K1 EA-Arrestin parental line); host or cells: CHO-K1 EA-Arrestin, clone #61.
Conditions: not given
On to `O=C(NC1(CO)CC1)c1nn(-c2ccc(Cl)cc2Cl)c2c1C[C@H]1C[C@@H]21` [Compound 174, (1aR,5aR)-2-(2,4-Dichloro-phenyl)-1a,2,5,5a-tetrahydro-1H-2,3-diaza-cyclopropa[a]pentalene-4-carboxylic acid (1-hydroxymethyl-cyclopropyl)-amide], for which the EC50 worked out at 38.2 nM. Regarding `CC(C)(CO)NC(=O)c1nn(-c2cnc(C#N)cn2)c2c1C[C@H]1C[C@@H]21` [Compound 264, (1aR,5aR)-2-(5-Cyano-pyrazin-2-yl)-1a,2,5,5a-tetrahydro-1H-2,3-diaza-cyclopropa[a]pentalene-4-carboxylic acid (2-hydroxy-1,1-dimethyl-ethyl)-amide], the EC50 worked out at 10.1 nM. For the compound `CC(C)(CO)NC(=O)c1nn(-c2ccc(F)cn2)c2c1C[C@H]1C[C@@H]21` [Compound 309, (1aR,5aR)-2-(5-Fluoro-pyridin-2-yl)-1a,2,5,5a-tetrahydro-1H-2,3-diaza-cyclopropa[a]pentalene-4-carboxylic acid (2-hydroxy-1,1-dimethyl-ethyl)-amide], the EC50 amounted to 19 nM. Same read-out and setting: as for `CC(C)(CO)NC(=O)c1nn(-c2ccc(F)cc2F)c2c1C1CC1C2` (stereo not drawn) [Compound 515, 1-(2,4-Difluoro-phenyl)-3b,4,4a,5-tetrahydro-1H-cyclopropa[3,4]cyclopenta[1,2-c]pyrazole-3-carboxylic acid (2-hydroxy-1,1-dimethyl-ethyl)-amide], the figure is 4.32 nM; as for `CC(C)(C#N)NC(=O)c1nn(-c2cc(Cl)ccn2)c2c1C[C@H]1C[C@@H]21` [Compound 625, (1aR,5aR)-2-(4-Chloro-pyridin-2-yl)-1a,2,5,5a-tetrahydro-1H-2,3-diaza-cyclopropa[a]pentalene-4-carboxylic acid (cyano-dimethyl-methyl)-amide], 4.45 nM. `CC(C)(C)[C@@H](CO)NC(=O)c1nn(-c2cnccn2)c2c1C[C@H]1C[C@@H]21` [Compound 642, (1aR,5aR)-2-Pyrazin-2-yl-1a,2,5,5a-tetrahydro-1H-2,3-diaza-cyclopropa[a]pentalene-4-carboxylic acid ((S)-1-hydroxymethyl-2,2-dimethyl-propyl)-amide]: the EC50 is 4.38 nM. Still for that read-out and setting: as for `O=C(N[C@H](CO)C1CCOCC1)c1nn(-c2cnccn2)c2c1C[C@H]1C[C@@H]21` [Compound 684, (1aR,5aR)-2-Pyrazin-2-yl-1a,2,5,5a-tetrahydro-1H-2,3-diaza-cyclopropa[a]pentalene-4-carboxylic acid ((S)-2-hydroxy-1-tetrahydro-pyran-4-yl-ethyl)-amide], the figure is 7.08 nM.
